Data taken from PMC11187126, “Structure and dynamics of the pyroglutamylated RF-amide peptide QRFP receptor GPR103” (Nature Communications, 2024).
Like-named read-outs stand apart in the source and are kept apart here. No end group written: not given here.

Target: T1, GPR103 F25N-termA (Homo sapiens, UniProt Q96P65, F25A)
T1 construct: we used human full-length QRFPR-encoding plasmids; expressed in transfected cells; host or cells: HEK293 cells, pCAGGS vector
T1 sequence (Q96P65 1-431 F25A): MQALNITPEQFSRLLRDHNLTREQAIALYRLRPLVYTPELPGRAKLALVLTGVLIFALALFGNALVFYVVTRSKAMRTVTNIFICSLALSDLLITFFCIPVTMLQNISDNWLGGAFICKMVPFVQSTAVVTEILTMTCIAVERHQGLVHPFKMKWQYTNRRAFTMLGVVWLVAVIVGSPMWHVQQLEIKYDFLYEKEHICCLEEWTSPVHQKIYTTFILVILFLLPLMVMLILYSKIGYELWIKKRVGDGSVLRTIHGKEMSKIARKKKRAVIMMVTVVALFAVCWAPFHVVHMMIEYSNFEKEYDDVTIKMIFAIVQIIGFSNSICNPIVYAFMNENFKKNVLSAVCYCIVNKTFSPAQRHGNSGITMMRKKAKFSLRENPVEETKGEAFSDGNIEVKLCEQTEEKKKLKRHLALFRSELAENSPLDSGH
Test: TGFα shedding assay; Exp. level >WT (1:1)
Type: cell-based
Experimental: For the TGFα shedding assay and the flow cytometry analysis, we used human full-length QRFPR-encoding plasmids. Specifically, GPR103 was N-terminally modified with an HA signal sequence followed by a FLAG epitope and then a flexible linker ([…]; the FLAG epitope is underlined) and inserted into the pCAGGS vector. Plasmid encoding GPR103 mutants were generated using Quickchange Site-Directed Mutagensis kit (Agilent).
The TGFα shedding assay was performed as described previously with minor modifications. Plasmid transfection was performed in a 6-well plate with a mixture of 500 ng (per well in a 6-well plate) AP-TGFα-encoding plasmid and 200 ng GPR103-encoding plasmid. After 1-day culture, the transfected cells were harvested by trypsinization, pelleted by centrifugation at 190 × g for 5 min, and washed once with 5 mM HEPES (pH 7.4)-containing Hank’s Balanced Salt Solution (HBSS). After centrifugation, the cells were resuspended in 8 mL of the HEPES-containing HBSS. The cell suspension was seeded in a 96-well culture plate (cell plate) at a volume of 90 μL (per well hereafter) and incubated in a 37 °C incubator with 5% CO2 for 30 min. […] After spinning the cell plates at 190 × g for 2 min, 80 μL of conditioned media was transferred to an empty 96-well plate (conditioned media (CM) plate). Then, 80 μL of AP reaction solution (10 mM p-nitrophenylphosphate (p-NPP), 120 mM Tris-HCl (pH 9.5), 40 mM NaCl, and 10 mM MgCl2) was dispensed into the cell plates and the CM plates. Absorbance at 405 nm of the plates was measured using a microplate reader (SpectraMax 340 PC384, Molecular Devices) before and after 1-h incubation at room temperature. Ligand-induced AP-TGFα release was calculated by subtracting spontaneous AP-TGFα release signal from ligand-induced AP-TGFα release signal. The AP-TGFα release signals were fitted to a four-parameter sigmoidal concentration–response curve, using the Prism 10 software (GraphPad Prism). For each replicate experiment, the pEC50 parameter (negative logarithmic values of EC50 values) of the individual GPR103 mutants were normalized to that of the wild-type GPR103 performed in parallel, and resulting ∆pEC50 values were used to denote ligand response activity of the mutants. […]
Exp. le vel: WT (1:5 0)Exp. le vel: WT (1:5 0)Exp. le vel: WT (1:5 0)Exp. le vel: WT (1:2 0)Exp. le vel: WT (1:2 0)Exp. le vel: WT (1:1 0) […]
L1 4N - t e r mA F2 5N - t e r mA I 2 6N - t e r mA Y 2 9N - t e r mA C 9 82 .5 7A T10 22 .6 1A Exp . l eve l: WT (1 :5)Exp . l evel : >WT (1 :1)Exp. le vel: WT (1:2 0)Exp. le vel: WT (1:2 0)Exp. le vel: WT (1:5 0)Exp . l eve l: WT (1 :1) […]
Exp. le vel: WT (1:1 0)Exp. le vel: WT (1:2 0) C 1 1 83 .2 5AExp. le vel: WT (1:5 0)Exp. le vel: WT (1:5 0)Exp. le vel: WT (1:2 0)Exp . l eve l: WT (1 :5) […]
Exp. le vel: WT (1:5 0)Exp. le vel: WT (1:1 0)Exp. le vel: WT (1:5 0) E203ECL2AExp . l evel : >WT (1 :1)Exp. le vel: WT (1:5 0)Exp. le vel: WT (1:5 0) […]
Exp . l eve l: WT (1 :1) F28Exp. le vel: WT (1:5 0) C 2 8 56 .4 7AExp. le vel: WT (1:2 0) WExp. le vel: WT (1:2 0) F28Exp. le vel: WT (1:5 0)Exp . l evel : >WT (1 :1) […]
Exp. le vel: WT (1:5 0)Exp. le vel: WT (1:5 0) C 3 2 77 .4 8AExp . l eve l: WT (1 :5)Exp . l evel : >WT (1 :1)Exp . l evel : >WT (1 :1) […]
Suppl eme nt ary Figure 1 | Mutational analysis of GPR103. […]
mutants. Data are presented as mean values ± SEM, normally n=3-5; dots), each performed in triplicate. b-d Cell-surface expression (b) and QRFP26-in-duced activation of GPR103 (c, d) were analyzed by the flow cytometry and the TGFα shedding assay, respectively. From the concentration–response curves (a), Emax (c) and ΔpEC50 (d) values relative to the wild type were calculated. Colors in the mutant bars indicate an expression level matching to that of titrated wild type. Statistical analyses were performed using the ordinary one-way ANOVA followed by Dunnett tests with the expression-matched […]

TSGPLGNLAEELNGYSRKKGGFSFRF-NH2 [QRFP26]
Emax (Exp. #1): 108.31 % WT
Emax (Exp. #2): 103.77 % WT
Emax (Exp. #3): 108.41 % WT
Emax (mean, read-out: Emax): 107%
EC50 (n = 3): 79.4 nM
Emax (n = 3, read-out: Emax): 110 ± 1.2%
